Measured values taken from publication PMC9788395, “Cell-Penetrating Peptide–Peptide Nucleic Acid Conjugates as a Tool for Protein Functional Elucidation in the Native Bacterium” (Molecules, 2022).
Non-standard residues stand in square brackets, D forms with d. Residues, ends and D or L forms follow the SMILES beside them. Dab = NCC[C@H](N)C(=O)O

Test system: Paenibacillus sp. YYML68
Type: cell-based
Settings: not told
Method: Figure S5. Evaluation of (DabFF)3K-FAM permeation into Paenibacillus sp. YYML68. (DabFF)3Dab- […]
FAM permeation was performed at 2 µM concentration in PBS at room temperature (23℃) for 1 h.
Untreated […] strain samples were used as a negative control (NC). Green fluorescence images […]
were captured using the blue wide-excitation mirror unit (U-FBWA; Olympus). Cell integrity was […]
confirmed by bright field (BF) images. Images of (DabFF) 3Dab-FAM permeated cells and the negative […]
controls were captured at similar exposure times to allow for comparison. Scale bar is 5 µm.
Enzymes for Biocatalysis: Sources, Biocatalytic Characteristic and Bioprocesses of Marine […]
Enzymes, Trincone, A., Ed. Woodhead Publishing Limited: Cambridge, 2013; pp 4 29-464.
electrospray ionization mass spectrometry for the characterization of kappa - and iota- […]
carrageenans. Application to the hybrid iota -/nu-carrageenans. Analytical chemistry 2005, 77, […]
Cerezo, A. S.; Erra-Balsells, R.; Matulewicz, M. C., Matrix -assisted laser desorption/ionization time-of-flight (MALDI-TOF) mass spectrometry analysis of oligosaccharides and […]
oligosaccharide alditols obtained by hydrolysis of agaroses and carrageenans, two important […]
types of red seaweed polysaccharides. Carbohydrate research 2010, 345, (2), 275-83.
(1 picture or pasted object on this page, not shown here)

With `NCC[C@H](NC(=O)[C@H](Cc1ccccc1)NC(=O)[C@H](Cc1ccccc1)NC(=O)[C@H](CCN)NC(=O)[C@H](Cc1ccccc1)NC(=O)[C@H](Cc1ccccc1)NC(=O)[C@H](CCN)NC(=O)[C@H](Cc1ccccc1)NC(=O)[C@H](Cc1ccccc1)NC(=O)[C@@H](N)CCN)C(=O)O` [(DabFF)3Dab] (H-[Dab]FF[Dab]FF[Dab]FF[Dab]-OH) the “Permeation of the membrane of Paenibacillus sp. strain YYML68” value was “could efficiently and easily permeate the membrane”.
